58 compounds from PubChem BioAssay AID732 (Emory University Molecular Libraries Screening Center, 2007) can be followed below.

The assay deals with in vivo angiogenesis, blood vessel count. Description: angiogenesis inhibition in living animals, in vivo study, HTS (AID 732).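 Further: zebrafish embryos dosed at one day post fertilization; 0% = reference inhibitor and 100% = plate mean.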 The conditions noted are these: stronger effect = lower value;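 tested at 30 µM in the well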.

The source made the active and inactive calls. How the calls were made is not given here.

With `C[C@]12CCC(=O)C=C1CC[C@@H]1[C@@H]2CC[C@@]2(C)[C@H]1CC[C@]2(O)C(=O)CO`, the vessel count % control was 106% (inactive).
With `CCCCS(=N)(=O)CCC(N)C(=O)O` (stereo not drawn) the figure was 137% (inactive); with `O=C(O)c1cc(=O)cc(C(=O)O)[nH]1`, 86.1% (inactive).
With `NC(=O)N1c2ccccc2C=Cc2ccccc21` the figure was 96.4% (inactive).
With `C[C@@H]1O[C@@H](O[C@H]2C[C@@H](O)[C@]3(CO)[C@H]4[C@H](O)C[C@]5(C)[C@@H](C6=CC(=O)OC6)CC[C@]5(O)[C@@H]4CC[C@]3(O)C2)[C@H](O)[C@H](O)[C@H]1O` the figure was 109% (inactive).
As to `Nc1ncnc2c1c(-c1ccc(Oc3ccccc3)cc1)cn2C1CCCC1`, the vessel count % control was 77.9% (inactive).
With `C[C@]12C[C@H](O)[C@H]3[C@@H](CCC4=CC(=O)CC[C@@]43C)[C@@H]1CC[C@@H]2C(=O)CO`, the vessel count % control was 103% (inactive).
The result for `OC[C@H]1O[C@@H](n2cnc3c(NC4CCCC4)ncnc32)C(O)[C@H]1O` (stereo partly drawn) reads 94.3% (inactive); that for `OCc1cc(C(O)CNCCCCCCOCCCCc2ccccc2)ccc1O` (stereo not drawn), 126% (inactive).
Consider `COCC(=O)O[C@]1(CCN(C)CCCc2nc3ccccc3[nH]2)CCc2cc(F)ccc2[C@@H]1C(C)C`, for which the vessel count % control is 90.9% (inactive).
The result for `CCc1c(C)[nH]c2c1C(=O)C(CN1CCOCC1)CC2` (stereo not drawn) reads 93.5% (inactive); that for `O=C(O)Cc1c[nH]c2ccc(O)cc12`, 92.5% (inactive); that for `CCNC(=O)[C@H]1O[C@@H](n2cnc3c(N)ncnc32)C(O)[C@H]1O` (stereo partly drawn), 110% (inactive).
The result for `CCn1c(=O)[nH]c2cc(Cl)c(Cl)cc21` reads 87.7% (inactive); that for `OCCN1CCN(CCCN2c3ccccc3Sc3ccc(C(F)(F)F)cc32)CC1`, 116% (inactive); that for `NCCCC(N)(C(=O)O)C(F)F` (stereo not drawn), 80.5% (inactive).
With `CCOC(=O)C(C)(C)Oc1ccc(Cl)cc1` the figure was 55.4% (inactive); with `CCC1(O)CC2CN(CCc3c([nH]c4ccccc34)[C@@](C(=O)OC)(c3cc4c(cc3OC)N(C)C3[C@]45CCN4CC=C[C@@](CC)([C@@H](OC(C)=O)[C@]3(O)C(=O)OC)[C@H]45)C2)C1` (stereo partly drawn), 112% (inactive); with `CN(C)C(=O)Oc1cccc([N+](C)(C)C)c1`, 87.6% (inactive).
Turning to `C=CCN1CCc2cc(O)c(O)cc2C(c2ccccc2)C1` (stereo not drawn), the vessel count % control was 114% (inactive).
With `C/C(=C\c1ccc(C(=O)O)cc1)c1ccc2c(c1)C(C)(C)CCC2(C)C` the figure was 70% (inactive); with `CC(=O)O[C@]1(C(C)=O)CC[C@H]2[C@@H]3C=C(Cl)C4=CC(=O)[C@@H]5C[C@@H]5[C@]4(C)[C@H]3CC[C@@]21C`, 71.2% (inactive); with `C[C@H](NC(=O)/C(C#N)=C/c1ccc(O)c(O)c1)c1ccccc1`, 102% (inactive).
The result for `O=c1c2ccccc2nc2n1CCc1c-2[nH]c2ccccc12` reads 64.3% (inactive); that for `CCN(CC)C(C)C(=O)N1c2ccccc2Sc2ccccc21` (stereo not drawn), 94.9% (inactive); that for `O=C(O)c1cc[c]([Hg][Cl])cc1`, 105% (inactive).
`CC1=C[C@@H]2c3cccc4[nH]cc(c34)C[C@H]2N(C)C1`: the vessel count % control is 81.3% (inactive).
The result for `CCCCCCCCCCCCCCSCC(=O)O` reads 93.7% (inactive); that for `CCCn1c(=O)c2[nH]c(-c3ccc(OCC(=O)NCCN)cc3)nc2n(CCC)c1=O`, 99.8% (inactive); that for `COc1cccc2c1[C@@H]1CN(CCCCn3c(=O)[nH]c4c(sc5ncc(-c6ccccc6)nc54)c3=O)C[C@@H]1CO2`, 87.9% (inactive).
With `c1ccc2c(c1)OCC(C1=NCCN1)O2` (stereo not drawn) the figure was 146% (inactive).
The result for `Nc1ccn([C@H]2CC[C@@H](CO)O2)c(=O)n1` reads 103% (inactive); that for `C=CCN1CC[C@]23CCCCC2[C@H]1Cc1ccc(O)cc13` (stereo partly drawn), 141% (inactive).
`CC(=O)OCC1=C(C(=O)O)N2C(=O)[C@@H](NC(=O)Cc3cccs3)[C@H]2SC1`: the vessel count % control is 132% (inactive).
As for `COc1ccc(NC(=O)c2ccc(-c3ccc(-c4noc(C)n4)cc3C)cc2)cc1N1CCN(C)CC1`, the vessel count % control is 93% (inactive).
The result for `C[C@H](Cc1ccc(O)c(O)c1)[C@@H](C)Cc1ccc(O)c(O)c1` reads 124% (inactive); that for `C=CC[C@H](N)C(=O)O`, 111% (inactive).
With `CCC1(C)CC(=O)NC1=O` (stereo not drawn) the figure was 95.8% (inactive); with `CC(=O)N[C@@H](Cc1c[nH]c2ccccc12)C(=O)OCc1cc(C(F)(F)F)cc(C(F)(F)F)c1`, 70.4% (inactive); with `O=C(c1ccc(OCCN2CCCCC2)cc1)c1c(-c2ccc(O)cc2)sc2cc(O)ccc12`, 87.4% (inactive).
In the case of `CC[C@@H]1Cc2cc(O)ccc2C2=C1c1ccc(O)cc1C[C@H]2CC`, the vessel count % control was 99.8% (inactive).
With `CCN(c1nc(N)c(C(=O)N=C(N)N)nc1Cl)C(C)C` the figure was 73.9% (inactive).
The result for `Brc1ccc([C@H]2CN3CCSC3=N2)cc1` reads 94.7% (inactive); that for `Cc1ccc(N(CC2=NCCN2)c2cccc(O)c2)cc1`, 77.7% (inactive).
With `CC(=O)OCC1=C(C(=O)O)N2C(=O)[C@@H](NC(=O)CSc3ccncc3)[C@H]2SC1` the figure was 97.3% (inactive).
On to `COc1cc2c(cc1OC)[C@@H](c1ccccc1)CN(C)CC2`, for which the vessel count % control was 91.5% (inactive).
The result for `N=c1ccn2c(n1)OC1[C@@H](O)[C@@H](CO)O[C@H]12` (stereo partly drawn) reads 78.4% (inactive).
The result for `COc1ccc2c3c1O[C@H]1C(=O)CC[C@@]4(O)C(C2)N(CC2CC2)CCC314` (stereo partly drawn) reads 124% (inactive).
With `CCNC(=O)C1OC(n2cnc3c(NCc4ccccc4)ncnc32)C(O)C1O` (stereo not drawn) the figure was 110% (inactive); with `N[C@H]1CONC1=O`, 93% (inactive).
In the case of `C[N+](C)(CCCCCC[N+](C)(C)CCCN1C(=O)c2cccc3cccc(c23)C1=O)CCCN1C(=O)c2cccc3cccc(c23)C1=O`, the vessel count % control was 115% (inactive).
For the compound `Oc1ccc2c3c1O[C@H]1c4[nH]c5ccccc5c4C[C@@]4(O)C(C2)N(CC2CC2)CCC314` (stereo partly drawn), the vessel count % control is 115% (inactive).
The result for `O=c1cc(N2CCOCC2)oc2c(-c3ccccc3)cccc12` reads 120% (inactive); that for `CN1CCC23CCCC[C@H]2C1Cc1ccc(O)cc13` (stereo partly drawn), 100% (inactive); that for `NC12CC3CC(CC(C3)C1)C2`, 110% (inactive).
The result for `Nc1ncnc2c1ncn2[C@@H]1O[C@H](C(=O)NC2CC2)[C@H](O)C1O` (stereo partly drawn) reads 102% (inactive).
The result for `CCN1CCC[C@H]1CNC(=O)c1cc(S(N)(=O)=O)ccc1OC` reads 89.7% (inactive); that for `N=S(=O)(O)Cc1noc2ccccc12`, 88.2% (inactive).
